≈ marks a conversion by molar mass, not a printed value.
How the values were obtained:
Type in all cases: functional
[1] = tested on: Bacillus subtilis; experiment: Antimicrobial activity against Bacillus subtilis ATCC 43223
[2] = tested on: Staphylococcus aureus; experiment: Antimicrobial activity against Staphylococcus aureus ATTC 6538P
[3] = tested on: Staphylococcus aureus; experiment: Antimicrobial activity against methicillin-resistant Staphylococcus aureus ATTC 33591
[4] = tested on: Enterococcus faecalis; experiment: Antimicrobial activity against vancomycin-resistant Enterococcus faecalis VRE ATCC 51575
[5] = tested on: Klebsiella pneumoniae; experiment: Antimicrobial activity against Klebsiella pneumoniae ATCC 10031
[6] = tested on: Pseudomonas aeruginosa; experiment: Antimicrobial activity against Pseudomonas aeruginosa ATCC 9027

CC(C)=C1CC[C@@H](C)[C@@](C)(Cc2c[nH]c3ccccc23)[C@@H]1CCC(=O)O [SUAVEOLINDOLE]
MIC [1]: 4 µg/mL (≈ 11.3 µM) | MIC [2]: 8 µg/mL (≈ 22.6 µM) | MIC [3]: 8 µg/mL (≈ 22.6 µM) | MIC [4]: > 32 µg/mL | MIC [5]: > 128 µg/mL | MIC [6]: > 128 µg/mL
